Results published in article PMC6325233, “A Novel Actin Binding Drug with In Vivo Efficacy” (Antimicrobial Agents and Chemotherapy, 2018).
“Also recorded” adds a separate entry of the source. Like-named read-outs stand apart in the source and are kept apart here.

Experiments:
Aspergillus flavus 28445 = assay: MIC susceptibility testing; format: cell-based; parameters: key to MIC, 50% inhibition: -: indicates absence of isolates with 50% inhibition endpoint; settings: CLSI M38-A2
Procedure: (§1) Occidiofungin was purified from a liquid culture of Burkholderia contaminans MS14 as previously described ([21]). MIC susceptibility testing was performed according to the CLSI M27-A3 and M38-A2 standards for the susceptibility testing of yeasts and filamentous fungi, respectively. S. cerevisiae deletion mutants were obtained from the commercially available BY4741 deletion library (Thermo Scientific).

[1] = tested on: Cryptococcus neoformans 28446; assay: MIC susceptibility testing; format: cell-based; parameters: key to MIC, 50% inhibition: -: indicates absence of isolates with 50% inhibition endpoint; settings: CLSI M27-A3; 72 hours
Procedure: as §1

Fusarium oxysporum 27718 = assay: MIC susceptibility testing; format: cell-based; parameters: key to MIC, 50% inhibition: -: indicates absence of isolates with 50% inhibition endpoint; settings: CLSI M38-A2
Procedure: as §1

[2] = tested on: S. cerevisiae (diploid, BY4743) actin cables; assay: Actin cable visualization, TRITC-labeled phalloidin; format: cell-based; settings: for Cells without actin cables, Avg / Cells with actin cables, Avg: average of two replicates; for Cells without actin cables, Avg: untreated 25.87; for Cells with actin cables, Avg: untreated 74.13
Procedure: S. pombe and S. cerevisiae cells (OD600 of 0.6 to 0.8) were incubated with 1× MIC of alkyne-OF at 30°C, with samples removed at 10, 30, and 60 min postincubation. The cells were washed in PBS and fixed with 3.7% formaldehyde. The cells were permeabilized by adding 0.5% Triton X-100. The cells were washed with PBS before the Click reaction with azide-derivatized Alexa Fluor 488 (Click-iT EdU imaging kit; Thermo Fisher Scientific). The cells were visualized with an Olympus FV1000 confocal microscope. A competition assay was carried out by pretreating cells with 1× MIC of the native occidiofungin followed by treatment with alkyne-OF. […] A 6.6 µM concentration of tetramethyl rhodamine isothiocyanate (TRITC)-tagged phalloidin was added to formaldehyde-fixed cells (permeabilized with 0.2% Triton X-100) for 30 min at room temperature. The cells were washed in PBS, added to a concanavalin A-treated glass slides, and overlaid with Vectashield plus DAPI. Images were viewed using a Nikon 50i fluorescence microscope with a 100× oil immersion objective and Texas Red and DAPI filter sets. Random images were captured using a Retiga EXi black and white charge-coupled-device (CCD) camera and Image Q software. All images were captured using the same exposure settings, with the image contrast altered postcapture using CorelDraw.

[3] = target: T1, rabbit skeletal muscle F-actin (Oryctolagus cuniculus, UniProt P68135); assay: Affinity pulldown with biotinylated alkyne-OF and streptavidin beads; format: binding; settings: 24 μg F-actin, 8 μg alkyne-OF, azide-biotin, streptavidin beads, silver stain
T1 construct: Purified rabbit skeletal muscle filamentous actin (catalog number AKF99); purchased Cytoskeleton, Inc. AKF99; host or cells: rabbit skeletal muscle (tissue-purified)
Procedure: (§2) Purified rabbit skeletal muscle filamentous actin (catalog number AKF99) and G-actin (catalog number AKL95) were purchased from Cytoskeleton, Inc. Actin was reconstituted in Milli-Q water to achieve a stock concentration of 0.4 mg/ml in a buffer that consisted of 5 mM Tris-HCl (pH 8.0), 0.2 mM CaCl2, 0.2 mM ATP, 2 mM MgCl2, and 5% (wt/vol) sucrose as directed by the supplier. This solution was stored at −80°C in 50-μl aliquots until use. Immediately before use, each aliquot was thawed by placing it in a 37°C water bath for 5 min and then at room temperature. For all studies, 24 μg of F- or G-actin was used with 8 μg alkyne-OF. F-actin filaments were reacted with native occidiofungin for 15 min at room temperature at molar ratios of 1:10 (24 μg actin to 8 μg native occidiofungin) and 1:5 (24 μg actin to 4 μg native occidiofungin). As per the manufacturer’s instructions, Acti-stain 670 phalloidin (Cytoskeleton, Inc.) was used as a control in an in vitro actin filament binding study. Actin filaments treated with DMSO (solvent blank negative control) were stained and observed for comparison. The actin filaments were visualized on an Olympus FV1000 confocal microscope. Pulldown assays were performed using alkyne-OF with azide-biotin (Click-iT protein reaction buffer kit; Thermo Fisher Scientific), according to the manufacturer’s instructions. The proteins captured by biotinylated alkyne-OF on streptavidin beads were eluted by boiling in 50 µl of SDS sample loading buffer. The sample was electrophoresed through a 12% SDS gel, and protein bands were visualized by silver staining (Pierce Silver stain kit; Thermo Fisher Scientific) according to the manufacturer’s protocol. F- and G-actin treated with DMSO and native occidiofungin were used as the controls.

[4] = tested on: rabbit skeletal muscle G-actin; assay: as above; format: binding; settings: 24 μg G-actin, 8 μg alkyne-OF, azide-biotin, streptavidin beads, silver stain
Procedure: as §2

[5] = tested on: rabbit skeletal muscle filamentous actin; assay: In vitro actin filament microscopy; format: biochemical; settings: 24 μg actin with 4 or 8 μg native occidiofungin (8 μg alkyne-OF), 15 min
Procedure: as §2, with “The proteins captured by biotinylated alkyne-OF on streptavidin beads were eluted by boiling in 50 µl of SDS sample loading buffer. The sample was electrophoresed through a 12% SDS gel, and protein bands were visualized by silver staining (Pierce Silver stain kit; Thermo Fisher Scientific) according to the manufacturer’s protocol. F- and G-actin treated with DMSO and native occidiofungin were used as the controls.” left out

[6] = cited from earlier work
Procedure: Occidiofungin is a nonribosomally synthesized glycolipopeptide produced by the soil bacterium Burkholderia contaminans MS14 ([21]). It is a cyclic peptide with a base mass of 1,200 Da (Fig. 1) ([21]). Occidiofungin has a wide spectrum of activities against filamentous and nonfilamentous fungi and minimal toxicity in an animal system ([21], [22]). […] Occidiofungin, on the other hand, is well tolerated at 5 mg/kg or 20 mg/kg when administered intravenously or subcutaneously, respectively ([22], [25]). This dose is much higher than the MIC of occidiofungin against several fungal pathogens. ...

cancer cell lines = settings: several cancer cell lines vs human fibroblast control; cited from earlier work
Procedure: Natural products with in vitro antifungal properties that target the actin cytoskeleton were previously reported ([51]). […] Occidiofungin, on the other hand, is well tolerated at 5 mg/kg or 20 mg/kg when administered intravenously or subcutaneously, respectively ([22], [25]). This dose is much higher than the MIC of occidiofungin against several fungal pathogens. ...

Substance: occidiofungin
- MIC, 50% inhibition (Aspergillus flavus 28445; 24 hours): 2 µg/mL
- MIC, 100% inhibition (Aspergillus flavus 28445; 24 hours): 4 µg/mL
- MIC, 50% inhibition (Aspergillus flavus 28445; 48 hours): -
- MIC, 100% inhibition (Aspergillus flavus 28445; 48 hours): 4 µg/mL
- MIC, 50% inhibition [1]: -
- MIC, 100% inhibition [1]: 1 µg/mL
- MIC, 50% inhibition (Fusarium oxysporum 27718; 24 hours): 2 µg/mL
- MIC, 100% inhibition (Fusarium oxysporum 27718; 24 hours): 4 µg/mL
- MIC, 50% inhibition (Fusarium oxysporum 27718; 48 hours): -
- MIC, 100% inhibition (Fusarium oxysporum 27718; 48 hours): 4 µg/mL
- Cells with actin cables, % [2]: 1.32%
- Cells without actin cables, Avg ([2]; 0.5X MIC, 30 min, SD 1.45): 97.66%
- Cells with actin cables, Avg ([2]; 0.5X MIC, 30 min, SD 1.45): 2.34%
- Cells without actin cables, % ([2]; 0.5X MIC, 30 min, replicate 1): 98.68%
- Cells with actin cables, % ([2]; 0.5X MIC, 30 min, replicate 2): 3.36%
- Cells without actin cables, % ([2]; 0.5X MIC, 30 min, replicate 2): 96.64%
- Cells without actin cables, Avg ([2]; 0.5X MIC, 60 min, SD 0.25): 99.82%
- Cells with actin cables, Avg ([2]; 0.5X MIC, 60 min, SD 0.25): 0.18%
- Cells with actin cables, % ([2]; 0.5X MIC, 60 min, replicate 1): 0%
- Cells without actin cables, % ([2]; 0.5X MIC, 60 min, replicate 1): 100%
- Cells with actin cables, % ([2]; 0.5X MIC, 60 min, replicate 2): 0.36%
- Cells without actin cables, % ([2]; 0.5X MIC, 60 min, replicate 2): 99.64%
- effect on actin organization ([2]; 0.5× MIC, 30 min): an accumulation of actin patches and/or aggregates of F-actin were observed throughout the treated cells with a concomitant loss of actin cables; also recorded: a loss of actin cables and the accumulation of actin aggregates
- copurification/binding with F-actin [3]: directly bind to F- or G-actin
- copurification/binding with F-actin ([3]; listed as native OF): actin was not detected in the control lanes
- copurification/binding with G-actin [4]: directly bind to F- or G-actin
- copurification/binding with G-actin ([4]; listed as native OF): actin was not detected in the control lanes
- effect on F-actin morphology [5]: the morphology of F-actin changed in the presence of occidiofungin in a dose-dependent manner
- effect on F-actin morphology ([5]; listed as native occidiofungin): a high degree of aggregation of the filaments
- blood cells and blood chemistry [6]: no serious signs of toxicity
- toxicity at 5 mg/kg intravenous ([6]; intravenous, 5 mg/kg, mice): minimal induced toxicity
- well tolerated dose, intravenous ([6]; intravenous): 5 mg/kg
- blood chemistry and histopathology ([6]; mice, 5 mg/kg intravenous): a transient nonspecific stress response with no damage to organ tissues
- well tolerated dose, subcutaneous ([6]; subcutaneous): 20 mg/kg
- sensitivity of several cancer cell lines vs human fibroblast cell line (cancer cell lines): approximately 10 -fold
